Data reported in patent US6492137B1, “Response element compositions and assays employing same” (The Salk Institute for Biological Studies, priority 1989, dated 2002).

Key:
RARα = molecular target: T1, RARα (Homo sapiens, UniProt P10276); assay: Gel retardation DNA-binding assay with RARα-expressing COS cell extracts; design: expressed in transfected cells; host or cells: COS cells (whole-cell extract); conditions: unlabeled competitor oligonucleotide; COS cell extracts
T1 sequence (P10276 1-462): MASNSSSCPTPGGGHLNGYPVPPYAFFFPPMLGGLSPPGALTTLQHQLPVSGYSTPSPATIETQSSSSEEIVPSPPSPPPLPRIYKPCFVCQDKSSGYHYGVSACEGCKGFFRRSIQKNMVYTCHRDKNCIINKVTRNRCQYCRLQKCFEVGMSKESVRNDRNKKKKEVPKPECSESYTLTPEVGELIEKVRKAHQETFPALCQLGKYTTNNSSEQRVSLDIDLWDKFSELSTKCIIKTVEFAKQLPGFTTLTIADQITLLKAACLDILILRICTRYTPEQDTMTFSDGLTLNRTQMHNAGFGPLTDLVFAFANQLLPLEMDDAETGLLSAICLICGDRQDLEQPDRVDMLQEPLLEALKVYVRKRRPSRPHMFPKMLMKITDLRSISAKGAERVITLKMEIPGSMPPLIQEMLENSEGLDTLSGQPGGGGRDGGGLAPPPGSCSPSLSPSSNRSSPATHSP
Method: For DNA binding assays, COS cells were cultured in DMEM with 10% calf bovine serum and transfected by the calcium phosphate method with 20 μg of the pCMX receptor expression plasmid for 6 hours followed by a glycerol shock. After incubating the transfected COS cells for another 48 hours, the cells were harvested to prepare extracts for the DNA binding assay, carried out as described by Damm et al., Nature 339: 593-597 (1989). The extracts were made in 20 mM HEPES (pH 7.4), 0.4 M KCl, 2 mM DTT and 20% glycerol. A similar method was employed to prepare a whole cell extract from F9 stem cells. For the binding, 5 μg (COS) or 10 μg (F9) of proteins was incubated on ice for 20 minutes, first in 20 mM HEPES, 80 mM KCl, 1 mM DTT, 0.1% NP40, 2.5 μg of poly dI/dC, and 10% glycerol (cold competitor oligonucleotides, when included, were added during this pre-incubation period). Then 40 fmole of ^32P-labeled oligonucleotide probe (1-2×10^5 cpm, prepared by filling-in reaction using Klenow polymerase in the presence of α-^32P-dCTP) was added to the reaction mixture, followed by incubation at room temperature for 30 minutes. The receptor-DNA complexes were resolved by electrophoresis through 5% polyacrylamide gel containing 5% glycerol at 6 V/cm at room temperature.
Oligonucleotides listed in FIG. 3 were used as a probe to test specific DNA-binding of the RARα and TRβ in a gel retardation assay. On the βRARE, a faint background binding activity was detected in the mock transfected COS cell extract. […] In each case the result obtained from in vivo transactivation and in vitro DNA binding are consistent.
Using the mobility shift assay, the DNA-binding capacity of extracts from COS cells expressing TRβ and RARα to these sequences was also tested. […] This pattern is consistent with that of the in vivo activation (FIG. 4). A reciprocal pattern was obtained when the same oligonucleotides were used to compete RARα binding to the ^32P-labeled βRARE. […] This provides a striking example of the role of half-site spacing in generating a functional response element.

TRβ = molecular target: T2, TRβ (Homo sapiens, UniProt P10828); assay: Gel retardation DNA-binding assay with TRβ-expressing COS cell extracts; design: expressed in transfected cells; host or cells: COS cells (whole-cell extract); conditions: for TRβ binding to labeled oligonucleotide probe: gel retardation, TRβ COS cell extract; for competition for TRβ binding (mobility shift assay): unlabeled competitor oligonucleotide, COS cells expressing TRβ
T2 sequence (P10828 1-461): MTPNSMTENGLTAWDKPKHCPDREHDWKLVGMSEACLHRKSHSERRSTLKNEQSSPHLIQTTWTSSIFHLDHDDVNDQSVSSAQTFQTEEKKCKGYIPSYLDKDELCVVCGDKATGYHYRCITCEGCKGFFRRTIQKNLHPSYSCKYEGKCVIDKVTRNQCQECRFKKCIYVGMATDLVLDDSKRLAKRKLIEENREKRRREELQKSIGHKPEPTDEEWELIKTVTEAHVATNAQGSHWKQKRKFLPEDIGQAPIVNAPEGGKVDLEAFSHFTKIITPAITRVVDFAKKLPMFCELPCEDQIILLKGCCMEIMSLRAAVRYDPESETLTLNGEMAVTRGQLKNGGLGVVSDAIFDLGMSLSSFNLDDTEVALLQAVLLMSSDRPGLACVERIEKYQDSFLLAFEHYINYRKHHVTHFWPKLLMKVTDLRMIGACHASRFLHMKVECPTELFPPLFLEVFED
Summary of the method: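 Extracts of COS cells transfected with pCMX TRβ expression plasmid, 48 h post-transfection; 5 μg protein pre-incubated on ice 20 min with poly dI/dC, then 40 fmole 32P-labelled oligonucleotide 30 min at room temperature. Complexes resolved on 5% polyacrylamide gel.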

[1] = tested on: F9 teratocarcinoma stem cells; assay: CAT reporter transfection into RA responsive F9 teratocarcinoma stem cells; type: cell-based, mouse; conditions: RA 1 μM, 24 hours; no transfected receptor
Method: For cotransfection assays, a monkey kidney cell line CV-1 was kept in Dulbecco's modified Eagle's medium (DMEM) supplemented with 10% charcoal-resin double split calf bovine serum. Transfections were performed via calcium-phosphate precipitation method as described by Umesono, et al. in Cell 57: 1139-1146 (1989), with 0.5 μg of a pRS receptor expression plasmid, 1.0 μg of a reporter CAT plasmid, 5 μg of pRAS-βGAL [Umesono, et al., Cell 57: 1139-1146 (1989)] as an internal control, and 8.5 μg of carrier plasmid pUC19. The cells were transfected for 8 hours; after washing the DNA precipitates, the cells were then incubated for an additional 36 hours with or without the ligand (T3, 100 nM; RA, 1 μM; 1,25-(OH)2 vitamin D3, 100 nM). Cell extracts were prepared for βGAL and CAT assays, as described by Umesono, et al., supra. Transfection of F9 teratocarcinoma cells was carried out employing a similar method except the cells were incubated for 12 hours in the presence of the DNA precipitates, and the RA was added at 1 μM for another 24 hours before harvesting the cells. 2, 5, and 4 μg of the reporter, pRAS-βGAL, and pUC19 were used, respectively.
Similarly, when the same set of reporters as in FIG. 4 were transfected into F9 cells, only MHC-R (5-nucleotide spacer) and TREp are potent RAREs. In contrast, its RARE antecedents (MHC-N, MHC+1, MHC-T) are inert.

Substance | competition for RARα binding to 32P-labeled βRARE (RARα) | competition for TRβ binding to 32P-labeled MHC-N (TRβ; 50-fold excess of unlabeled oligonucleotide, COS cell extracts) | TRβ binding to labeled oligonucleotide probe (TRβ) | TRβ binding to labeled oligonucleotide probe (TRβ; listed as MHC-TRE) | competition for TRβ binding (mobility shift assay) (TRβ) | function as RARE in F9 cells [1]
MHC-N: 23-nucleotide core of the wild-type sequence (MHC-TRE) (SEQ ID NO:14) (AGCTGGAGGTGACAGGAGGACAGCAAGCT; DNA, backbone not given here; further chemistry not fully specified) | fails to compete at all | competed | specific binding | high affinity | efficient competition | inert
TREp: optimized palindromic rat growth hormone TRE (SEQ ID NO:10) (AGCTTCAGGTCATGACCTGAGAGCT; DNA, backbone not given here; double-stranded response element with agct overhangs, cloned into reporter plasmid) [reference compound] | effective competitors | – | – | – | efficient competition | potent RAREs
